System: Transport facilitation protein genes
Test: DNA chip mRNA expression in yeast, transport facilitation protein genes (Table 5)
Type: cell-based, Saccharomyces cerevisiae S288C
How it was run: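 Ratios compare mRNA levels in stressed and control S. cerevisiae. Each toxicant was applied for two hours to log-phase cultures at 25° C. at a sub-lethal, growth-inhibiting level; fluorescent cDNA (Cy3- or Cy5-dUTP) was hybridized to a genome-wide yeast chip for over 12 h at 65° C.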

CCCCC[C@H](O)CC(=O)CCc1ccc(O)c(OC)c1 [(13), gingerol]
The level of expressed mRNA in the presence of chemical substance/The level of expressed mRNA in the absence of chemical substance (yeast gene YHL036W): 1.5 | The level of expressed mRNA in the presence of chemical substance/The level of expressed mRNA in the absence of chemical substance (yeast gene YHL040C): 2.0 | The level of expressed mRNA in the presence of chemical substance/The level of expressed mRNA in the absence of chemical substance (yeast gene YHL047C): 3.8 | The level of expressed mRNA in the presence of chemical substance/The level of expressed mRNA in the absence of chemical substance (yeast gene YHR026W): 0.7 | The level of expressed mRNA in the presence of chemical substance/The level of expressed mRNA in the absence of chemical substance (yeast gene YHR048W): 1.1 | The level of expressed mRNA in the presence of chemical substance/The level of expressed mRNA in the absence of chemical substance (yeast gene YHR092C): 0.5 | The level of expressed mRNA in the presence of chemical substance/The level of expressed mRNA in the absence of chemical substance (yeast gene YHR094C): 0.7 | The level of expressed mRNA in the presence of chemical substance/The level of expressed mRNA in the absence of chemical substance (yeast gene YHR175W): 1.2 | The level of expressed mRNA in the presence of chemical substance/The level of expressed mRNA in the absence of chemical substance (yeast gene YIL006W): 0.8 | The level of expressed mRNA in the presence of chemical substance/The level of expressed mRNA in the absence of chemical substance (yeast gene YIL022W): 1.2 | The level of expressed mRNA in the presence of chemical substance/The level of expressed mRNA in the absence of chemical substance (yeast gene YIL056W): 1.5 | The level of expressed mRNA in the presence of chemical substance/The level of expressed mRNA in the absence of chemical substance (yeast gene YIL088C): 1.5 | The level of expressed mRNA in the presence of chemical substance/The level of expressed mRNA in the absence of chemical substance (yeast gene YJL212C): 1.0 | The level of expressed mRNA in the presence of chemical substance/The level of expressed mRNA in the absence of chemical substance (yeast gene YJR077C): 0.9 | The level of expressed mRNA in the presence of chemical substance/The level of expressed mRNA in the absence of chemical substance (yeast gene YJR095W): 0.8 | The level of expressed mRNA in the presence of chemical substance/The level of expressed mRNA in the absence of chemical substance (yeast gene YJR121W): 1.0 | The level of expressed mRNA in the presence of chemical substance/The level of expressed mRNA in the absence of chemical substance (yeast gene YKL016C): 1.3 | The level of expressed mRNA in the presence of chemical substance/The level of expressed mRNA in the absence of chemical substance (yeast gene YKL188C): 1.2 | The level of expressed mRNA in the presence of chemical substance/The level of expressed mRNA in the absence of chemical substance (yeast gene YKL217W): 1.2 | The level of expressed mRNA in the presence of chemical substance/The level of expressed mRNA in the absence of chemical substance (yeast gene YKL221W): 1.6 | The level of expressed mRNA in the presence of chemical substance/The level of expressed mRNA in the absence of chemical substance (yeast gene YKR039W): 1.3 | The level of expressed mRNA in the presence of chemical substance/The level of expressed mRNA in the absence of chemical substance (yeast gene YKR067W): 1.3 | The level of expressed mRNA in the presence of chemical substance/The level of expressed mRNA in the absence of chemical substance (yeast gene YKR105C): 2.5 | The level of expressed mRNA in the presence of chemical substance/The level of expressed mRNA in the absence of chemical substance (yeast gene YLL055W): 1.5 | The level of expressed mRNA in the presence of chemical substance/The level of expressed mRNA in the absence of chemical substance (yeast gene YLR081W): 0.6 | The level of expressed mRNA in the presence of chemical substance/The level of expressed mRNA in the absence of chemical substance (yeast gene YLR092W): 1.8 | The level of expressed mRNA in the presence of chemical substance/The level of expressed mRNA in the absence of chemical substance (yeast gene YLR295C): 0.8 | The level of expressed mRNA in the presence of chemical substance/The level of expressed mRNA in the absence of chemical substance (yeast gene YLR348C): 1.9 | The level of expressed mRNA in the presence of chemical substance/The level of expressed mRNA in the absence of chemical substance (yeast gene YLR378C): 1.6 | The level of expressed mRNA in the presence of chemical substance/The level of expressed mRNA in the absence of chemical substance (yeast gene YML116W): 0.8 | The level of expressed mRNA in the presence of chemical substance/The level of expressed mRNA in the absence of chemical substance (yeast gene YMR162C): 0.9 | The level of expressed mRNA in the presence of chemical substance/The level of expressed mRNA in the absence of chemical substance (yeast gene YNL055C): 2.4 | The level of expressed mRNA in the presence of chemical substance/The level of expressed mRNA in the absence of chemical substance (yeast gene YNR072W): 1.5 | The level of expressed mRNA in the presence of chemical substance/The level of expressed mRNA in the absence of chemical substance (yeast gene YOL119C): 1.6 | The level of expressed mRNA in the presence of chemical substance/The level of expressed mRNA in the absence of chemical substance (yeast gene YOL156W): 1.7 | The level of expressed mRNA in the presence of chemical substance/The level of expressed mRNA in the absence of chemical substance (yeast gene YOL158C): 1.4 | The level of expressed mRNA in the presence of chemical substance/The level of expressed mRNA in the absence of chemical substance (yeast gene YOL163W): 2.4 | The level of expressed mRNA in the presence of chemical substance/The level of expressed mRNA in the absence of chemical substance (yeast gene YOR035C): 2.5 | The level of expressed mRNA in the presence of chemical substance/The level of expressed mRNA in the absence of chemical substance (yeast gene YOR130C): 2.1 | The level of expressed mRNA in the presence of chemical substance/The level of expressed mRNA in the absence of chemical substance (yeast gene YOR153W): 11.8 | The level of expressed mRNA in the presence of chemical substance/The level of expressed mRNA in the absence of chemical substance (yeast gene YOR270C): 1.3 | The level of expressed mRNA in the presence of chemical substance/The level of expressed mRNA in the absence of chemical substance (yeast gene YOR273C): 2.6 | The level of expressed mRNA in the presence of chemical substance/The level of expressed mRNA in the absence of chemical substance (yeast gene YOR316C): 1.6 | The level of expressed mRNA in the presence of chemical substance/The level of expressed mRNA in the absence of chemical substance (yeast gene YOR332W): 2.2 | The level of expressed mRNA in the presence of chemical substance/The level of expressed mRNA in the absence of chemical substance (yeast gene YPL036W): 0.3 | The level of expressed mRNA in the presence of chemical substance/The level of expressed mRNA in the absence of chemical substance (yeast gene YPL134C): 1.0 | The level of expressed mRNA in the presence of chemical substance/The level of expressed mRNA in the absence of chemical substance (yeast gene YPL265W): 1.1 | The level of expressed mRNA in the presence of chemical substance/The level of expressed mRNA in the absence of chemical substance (yeast gene YPL271W): 1.2 | The level of expressed mRNA in the presence of chemical substance/The level of expressed mRNA in the absence of chemical substance (yeast gene YPR124W): 0.6 | The level of expressed mRNA in the presence of chemical substance/The level of expressed mRNA in the absence of chemical substance (yeast gene YPR194C): 1.0
